According to patent US8247211B2, “Glycopeptide antibiotics” (American Cyanamid Company, priority 2001, dated 2012):
Values after ≈ are worked out from the molar mass of the structure shown.

Columns and labels:
[1] = tested on: Enterococcus sp.; assay: In vitro antibacterial evaluation: minimum inhibitory concentration (MIC), broth dilution method; format: cell-based
Outline: (§1)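 An MIC is reported for each organism as the least concentration giving inhibition, using broth dilution over 64-0.06 μg/mL with a 5×10^5 CFU/mL inoculum.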

[2] = tested on: Escherichia coli; assay: as above; format: cell-based; settings: strain GC 4560
Outline: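 Using Muller-Hinton II […] and an inoculum of 5×10^5 CFU/mL, antibiotic dilutions from 64 down to 0.06 μg/mL were tested following NCCLS M7-A2. The MIC is the lowest concentration inhibiting growth, including in methicillin-, penicillin- or vancomycin-resistant clinical isolates.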

[3] = tested on: Staphylococcus sp.; assay: as above; format: cell-based; settings: broth dilution, 18 hours at 35° C.
Outline: as §1

[4] = tested on: Streptococcus sp.; assay: as above; format: cell-based
Outline: as §1

[5] = tested on: Staphylococcus aureus-SMITH (GC 4543); assay: Acute lethal infection in mice (ED50); format: in vivo; settings: female CD-1 mice, intraperitoneal challenge, intravenous dose 30 min. after infection, 7 day survival ratios
Outline: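 IP bacterial challenge, female CD-1 mice; inoculum lethal to untreated controls in 24-48 hr. IV dosing in saline or 5% dextrose 30 min post-infection, 5 mice/dose. ED50 from 7-day survival, 3 tests pooled.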

[6] = format: in vivo; settings: mice, 20 mg/kg intravenously daily for 9 days, serum on day 10
Description: 20-day-old CD-1 mice were divided into a vehicle control group (5 mice) and a treatment group (5 mice). Samples of glycopeptide antibiotics were administered at 20 mg/kg intravenously daily for 9 days. Animals were necropsied on day 10 Sera were analyzed for BUN (blood urea nitrogen), creatinine, AST (aspartic aminotransferase), and ALT (alanine aminotransferase) by routine, standard, automated methods using an Hitachi 747 chemistry analyzer.

[7] = Anatomic pathology (heart and kidney histopathology) in mice; format: in vivo, CD-1 mice; settings: 20 mg/kg intravenously daily for 9 days, microscopic histopathology on day 10
Outline: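 Histopathology on H&E-stained, paraffin-embedded sections, subjectively scored (slight, mild, moderate, marked, severe) relative to untreated controls. Dosing: glycopeptide antibiotics 20 mg/kg intravenously once daily ×9 days in 20-day-old CD-1 mice, n=5 per group including vehicle.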

CC(c1ccccc1)C1NC(=O)CNC(=O)C(CO)NC(=O)C(C(O)C2CN(Cc3ccc(-c4ccccc4)cc3)C(=N)N2C2OC(CO)C(O)C(O)C2O)NC(=O)C(C(O)C2CNC(=NCc3ccc(-c4ccccc4)cc3)N2Cc2ccc(-c3ccccc3)cc2)NC(=O)C(Cc2ccc(OC3OC(CO)C(OC4OC(CO)C(O)C(O)C4O)C(O)C3O)cc2)NC1=O (stereo not drawn) [Example 66]
MIC Enterococcus avium (GC 4558) ([1]; Enterococcus avium (GC 4558), broth dilution, 18 hours at 35° C.): 4 µg/mL (≈ 2.23 µM) | MIC Enterococcus faecalis (ATCC 29212) ([1]; Enterococcus faecalis (ATCC 29212), broth dilution, 18 hours at 35° C.): 16 µg/mL (≈ 8.92 µM) | MIC Enterococcus faecalis (GC 2242) ([1]; Enterococcus faecalis (GC 2242), broth dilution, 18 hours at 35° C.): 16 µg/mL (≈ 8.92 µM) | MIC Enterococcus faecalis (GC 2691) ([1]; Enterococcus faecalis (GC 2691), broth dilution, 18 hours at 35° C.): 32 µg/mL (≈ 17.8 µM) | MIC Enterococcus faecalis (GC 3059) ([1]; Enterococcus faecalis (GC 3059), broth dilution, 18 hours at 35° C.): 32 µg/mL (≈ 17.8 µM) | MIC Enterococcus faecalis (GC 4552) ([1]; Enterococcus faecalis (GC 4552), broth dilution, 18 hours at 35° C.): 32 µg/mL (≈ 17.8 µM) | MIC Enterococcus faecalis (GC 4553) ([1]; Enterococcus faecalis (GC 4553), broth dilution, 18 hours at 35° C.): 8 µg/mL (≈ 4.46 µM) | MIC Enterococcus faecalis (GC 4554) ([1]; Enterococcus faecalis (GC 4554), broth dilution, 18 hours at 35° C.): 64 µg/mL (≈ 35.7 µM) | MIC Enterococcus faecalis (GC 6189) ([1]; Enterococcus faecalis (GC 6189), broth dilution, 18 hours at 35° C.): 32 µg/mL (≈ 17.8 µM) | MIC Enterococcus faecium (GC 2243) ([1]; Enterococcus faecium (GC 2243), broth dilution, 18 hours at 35° C.): 8 µg/mL (≈ 4.46 µM) | MIC Enterococcus faecium (GC 4556) ([1]; Enterococcus faecium (GC 4556), broth dilution, 18 hours at 35° C.): 32 µg/mL (≈ 17.8 µM) | MIC Enterococcus faecium (GC 4557) ([1]; Enterococcus faecium (GC 4557), broth dilution, 18 hours at 35° C.): 4 µg/mL (≈ 2.23 µM) | MIC Enterococcus faecalis (ATCC 29212) ([1]; strain ATCC 29212): 16 µg/mL (≈ 8.92 µM) | MIC Enterococcus faecalis (GC 2242) ([1]; strain GC 2242): 16 µg/mL (≈ 8.92 µM) | MIC Enterococcus faecium (GC 2243) ([1]; strain GC 2243): 8 µg/mL (≈ 4.46 µM) | MIC Enterococcus faecalis (GC 2691) ([1]; strain GC 2691): 32 µg/mL (≈ 17.8 µM) | MIC Enterococcus faecalis (GC 3059) ([1]; strain GC 3059): 32 µg/mL (≈ 17.8 µM) | MIC Enterococcus faecalis (GC 4552) ([1]; strain GC 4552): 32 µg/mL (≈ 17.8 µM) | MIC Enterococcus faecalis (GC 4553) ([1]; strain GC 4553): 8 µg/mL (≈ 4.46 µM) | MIC Enterococcus faecalis (GC 4554) ([1]; strain GC 4554): 64 µg/mL (≈ 35.7 µM) | MIC Enterococcus faecium (GC 4556) ([1]; strain GC 4556): 32 µg/mL (≈ 17.8 µM) | MIC Enterococcus faecium (GC 4557) ([1]; strain GC 4557): 4 µg/mL (≈ 2.23 µM) | MIC Enterococcus avium (GC 4558) ([1]; strain GC 4558): 4 µg/mL (≈ 2.23 µM) | MIC Enterococcus faecalis (GC 6189) ([1]; strain GC 6189): 32 µg/mL (≈ 17.8 µM) | MIC Escherichia coli (GC 4560) [2]: 4 µg/mL (≈ 2.23 µM) | MIC Coagulase Negative Staphylococcus (GC 4547) [3]: 4 µg/mL (≈ 2.23 µM) | MIC Coagulase Negative Staphylococcus (GC 4548) [3]: 8 µg/mL (≈ 4.46 µM) | MIC Coagulase Negative Staphylococcus (GC 4549) [3]: 4 µg/mL (≈ 2.23 µM) | MIC Coagulase Negative Staphylococcus (GC 4551) [3]: 8 µg/mL (≈ 4.46 µM) | MIC Coagulase Negative Staphylococcus (GC 6257) [3]: 4 µg/mL (≈ 2.23 µM) | MIC Staphylococcus aureus (ATCC 29213) [3]: 8 µg/mL (≈ 4.46 µM) | MIC Staphylococcus aureus (GC 1131) [3]: 16 µg/mL (≈ 8.92 µM) | MIC Staphylococcus aureus (GC 3051) [3]: 8 µg/mL (≈ 4.46 µM) | MIC Staphylococcus aureus (GC 3053) [3]: 8 µg/mL (≈ 4.46 µM) | MIC Staphylococcus aureus (GC 4541) [3]: 8 µg/mL (≈ 4.46 µM) | MIC Staphylococcus aureus (GC 4542) [3]: 8 µg/mL (≈ 4.46 µM) | MIC Staphylococcus aureus (GC 4544) [3]: 8 µg/mL (≈ 4.46 µM) | MIC Staphylococcus aureus (GC 4545) [3]: 4 µg/mL (≈ 2.23 µM) | MIC Staphylococcus aureus SMITH (GC 4543) [3]: 8 µg/mL (≈ 4.46 µM) | MIC Staphylococcus haemolyticus (GC 4546) [3]: 4 µg/mL (≈ 2.23 µM) | MIC Staphylococcus aureus (ATCC 29213) ([3]; strain ATCC 29213): 8 µg/mL (≈ 4.46 µM) | MIC Staphylococcus aureus (GC 1131) ([3]; strain GC 1131): 16 µg/mL (≈ 8.92 µM) | MIC Staphylococcus aureus (GC 3051) ([3]; strain GC 3051): 8 µg/mL (≈ 4.46 µM) | MIC Staphylococcus aureus (GC 3053) ([3]; strain GC 3053): 8 µg/mL (≈ 4.46 µM) | MIC Staphylococcus aureus (GC 4541) ([3]; strain GC 4541): 8 µg/mL (≈ 4.46 µM) | MIC Staphylococcus aureus (GC 4542) ([3]; strain GC 4542): 8 µg/mL (≈ 4.46 µM) | MIC Staphylococcus aureus (GC 4544) ([3]; strain GC 4544): 8 µg/mL (≈ 4.46 µM) | MIC Staphylococcus aureus (GC 4545) ([3]; strain GC 4545): 4 µg/mL (≈ 2.23 µM) | MIC Coagulase Negative Staphylococcus (GC 4547) ([3]; strain GC 4547): 4 µg/mL (≈ 2.23 µM) | MIC Coagulase Negative Staphylococcus (GC 4548) ([3]; strain GC 4548): 8 µg/mL (≈ 4.46 µM) | MIC Coagulase Negative Staphylococcus (GC 4549) ([3]; strain GC 4549): 4 µg/mL (≈ 2.23 µM) | MIC Coagulase Negative Staphylococcus (GC 4551) ([3]; strain GC 4551): 8 µg/mL (≈ 4.46 µM) | MIC Coagulase Negative Staphylococcus (GC 6257) ([3]; strain GC 6257): 4 µg/mL (≈ 2.23 µM) | MIC Staphylococcus aureus-SMITH (GC 4543) ([3]; strain SMITH GC 4543): 8 µg/mL (≈ 4.46 µM) | MIC Streptococcus agalactiae (GC 4564) ([4]; Streptococcus agalactiae (GC 4564), broth dilution, 18 hours at 35° C.): 32 µg/mL (≈ 17.8 µM) | MIC Streptococcus pneumoniae (ATCC 6301) ([4]; Streptococcus pneumoniae (ATCC 6301), broth dilution, 18 hours at 35° C.): 32 µg/mL (≈ 17.8 µM) | MIC Streptococcus pneumoniae (GC 1894) ([4]; Streptococcus pneumoniae (GC 1894), broth dilution, 18 hours at 35° C.): 32 µg/mL (≈ 17.8 µM) | MIC Streptococcus pneumoniae (GC 4565) ([4]; Streptococcus pneumoniae (GC 4565), broth dilution, 18 hours at 35° C.): 64 µg/mL (≈ 35.7 µM) | MIC Streptococcus pyogenes (GC 4563) ([4]; Streptococcus pyogenes (GC 4563), broth dilution, 18 hours at 35° C.): 16 µg/mL (≈ 8.92 µM) | MIC Streptococcus pneumoniae (ATCC 6301) ([4]; strain ATCC 6301): 32 µg/mL (≈ 17.8 µM) | MIC Streptococcus pneumoniae (GC 1894) ([4]; strain GC 1894): 32 µg/mL (≈ 17.8 µM) | MIC Streptococcus pyogenes (GC 4563) ([4]; strain GC 4563): 16 µg/mL (≈ 8.92 µM) | MIC Streptococcus agalactiae (GC 4564) ([4]; strain GC 4564): 32 µg/mL (≈ 17.8 µM) | MIC Streptococcus pneumoniae (GC 4565) ([4]; strain GC 4565): 64 µg/mL (≈ 35.7 µM) | median effective dose (ED50), Staphylococcus aureus-SMITH (GC 4543) [5]: >8 | Clinical Chemistry (Day 10) % of Control, ALT [6]: 182% | Clinical Chemistry (Day 10) % of Control, AST [6]: 147% | Anatomical Pathology (Day 10), Heart [7]: 0 | Anatomical Pathology (Day 10), Kidney [7]: 0
